ChEMBL document CHEMBL1148195, “Chemical investigation of predator-deterred macroalgae from the Antarctic peninsula” (2004)
Calls of active or inactive are those of the source. No cut-off for these calls is given here.

Columns and labels:
Type in all cases: functional
Candida albicans = test: Antimicrobial activity against Candida albicans 54 at 200 ug/spot after 18 hrs by agar diffusion method
Staphylococcus aureus [1] = test: Antibacterial activity against methicillin-resistant Staphylococcus aureus 310 at 200 ug/spot after 18 hrs by agar diffusion method
Staphylococcus aureus [2] = test: Antibacterial activity against methicillin-sensitive Staphylococcus aureus 375 at 200 ug/spot after 18 hrs by agar diffusion method
Enterococcus faecium = test: Antibacterial activity against vancomycin-resistant Enterococcus faecium 379 at 200 ug/spot after 18 hrs by […]
Escherichia coli = test: Antibacterial activity against permeability mutant Escherichia coli 389 at 200 ug/spot after 18 hrs by agar diffusion method

Row | SMILES | inhibition zone (IZ) (Candida albicans) [mm] | inhibition zone (IZ) (Staphylococcus aureus [1]) [mm] | inhibition zone (IZ) (Staphylococcus aureus [2]) [mm] | inhibition zone (IZ) (Enterococcus faecium) [mm] | inhibition zone (IZ) (Escherichia coli) [mm] | Activity (Staphylococcus aureus [1]) | Activity (Staphylococcus aureus [2]) | Activity (Candida albicans) | Activity (Escherichia coli) | Activity (Enterococcus faecium)
1 | C[C@@](Cl)(/C=C/Br)[C@H]1CO[C@@](C)(O)[C@@H](Br)C1 | 8 |  |  |  |  |  |  |  |  | 
2 | CCC[C@@H](OC(C)=O)C1=C(Br)/C(=C\Br)OC1=O [ACETOXYFIMBROLIDE] | 17 | 25 | 24 | 16 | 9 |  |  |  |  | 
3 | CC(C)(Br)[C@@H](Cl)C[C@H](Br)[C@](C)(Cl)/C=C/Br [ANVERENE] |  |  |  | 8 |  | inactive | inactive | inactive | inactive | 
4 | CCCCC1=C(Br)/C(=C\Br)OC1=O [FIMBROLIDE] |  | 7 | 7 |  |  |  |  | inactive | inactive | inactive
5 | CCC[C@@H](O)C1=C(Br)/C(=C\Br)OC1=O [HYDROXYFIMBROLIDE] | 25 | 23 | 23 | 14 | 9 |  |  |  |  | 
6 | CC1=CC(=O)C=C(C/C=C(\C)CC/C=C(\C)CC/C=C(\C)CC/C=C(\C)C(=O)O)C1=O [MENZOQUINONE] |  | 8 | 6 | 7 |  |  |  |  |  | 
